For this experiment, the target named is T1, EGFR (Homo sapiens, UniProt P00533).
T1 construct: made in house; host or cells: baculovirus expression system
The experiment in a line: EGFR substrate phosphorylation assay (HTRF). Type of experiment: biochemical. The settings on record: Method (A): Enzyme Mix incubated with compound at 20° C. for 1 hr, reaction started by adding Substrate Mix. Summed up:
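Baculovirus-expressed kinase (0.8 nM EGFR or 10 nM ErbB2 in enzyme mix) with Peptide C 0.8 μM and ATP 20 μM (substrate-mix levels), MOPS pH 7.5, MnCl2; 90 min, 20 °C, HTRF anti-phosphotyrosine. Method A adds 1 h enzyme–compound preincubation; B none. pIC50, final compound 0.00027–47.6 μM.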
Background: Time-resolved FRET reads energy transfer from a long-lived donor to a nearby acceptor.

T1 sequence (P00533 25-1210): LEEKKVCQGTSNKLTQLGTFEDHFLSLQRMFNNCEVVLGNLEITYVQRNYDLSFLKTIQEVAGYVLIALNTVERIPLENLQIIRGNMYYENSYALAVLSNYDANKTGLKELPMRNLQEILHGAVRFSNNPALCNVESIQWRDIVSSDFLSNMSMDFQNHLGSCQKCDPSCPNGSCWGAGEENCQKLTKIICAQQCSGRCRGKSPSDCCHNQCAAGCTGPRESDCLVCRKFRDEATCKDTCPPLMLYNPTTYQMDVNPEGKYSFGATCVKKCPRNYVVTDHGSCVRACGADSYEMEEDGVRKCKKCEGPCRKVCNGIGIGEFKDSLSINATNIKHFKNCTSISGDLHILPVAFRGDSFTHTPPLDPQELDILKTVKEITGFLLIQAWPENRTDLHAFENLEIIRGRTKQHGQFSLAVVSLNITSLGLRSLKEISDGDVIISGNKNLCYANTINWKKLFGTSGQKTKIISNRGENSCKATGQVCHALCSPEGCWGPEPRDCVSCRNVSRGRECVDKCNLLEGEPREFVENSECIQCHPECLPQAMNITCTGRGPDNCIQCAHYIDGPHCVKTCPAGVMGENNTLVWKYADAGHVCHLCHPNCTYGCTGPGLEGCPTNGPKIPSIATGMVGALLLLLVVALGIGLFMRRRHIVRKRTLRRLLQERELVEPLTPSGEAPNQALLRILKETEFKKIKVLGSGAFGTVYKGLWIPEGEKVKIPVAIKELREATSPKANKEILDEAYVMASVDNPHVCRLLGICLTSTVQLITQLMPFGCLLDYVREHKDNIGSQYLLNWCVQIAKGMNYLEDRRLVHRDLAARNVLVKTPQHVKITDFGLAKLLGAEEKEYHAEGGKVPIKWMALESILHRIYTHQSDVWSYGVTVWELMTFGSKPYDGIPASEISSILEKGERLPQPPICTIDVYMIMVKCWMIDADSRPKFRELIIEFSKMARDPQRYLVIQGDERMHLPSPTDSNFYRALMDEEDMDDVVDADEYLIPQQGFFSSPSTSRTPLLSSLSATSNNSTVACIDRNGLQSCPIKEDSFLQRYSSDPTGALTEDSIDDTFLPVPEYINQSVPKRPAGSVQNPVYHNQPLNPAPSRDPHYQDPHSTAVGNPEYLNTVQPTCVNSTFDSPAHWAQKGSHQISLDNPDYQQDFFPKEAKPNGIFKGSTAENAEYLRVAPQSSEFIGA

Usually IC50 stands for the concentration that inhibits the measured activity by half. `COc1cc(Nc2nccc(-c3sc(N)nc3-c3cccc(NC(=O)c4c(F)cccc4F)c3)n2)cc(OC)c1OC` [Example 16, N-[3-(2-Amino-5-{2-[(3,4,5-trimethoxyphenyl)amino]pyrimidiN-4-yl}-1,3-thiazol-4-yl)phenyl]-2,6-difluorobenzamide]: the IC50 is less than 100 nM.

As to `COc1ccc(Nc2nccc(-c3sc(N)nc3-c3cccc(NC(=O)c4c(F)cccc4F)c3)n2)cc1N1CCNCC1` [Example 18, N-[3-(2-Amino-5-{2-[(4-methoxy-3-piperaziN-1-ylphenyl)amino]pyrimidiN-4-yl}-1,3-thiazol-4-yl)phenyl]-2,6-difluorobenzamide], the half-maximal inhibitory concentration (IC50) was less than 100 nM.

Take `Cc1cc(-c2sc(N)nc2-c2cccc(NC(=O)c3c(F)cccc3F)c2)nc(Nc2cccc(F)c2)n1` [Example 48, N-[3-(2-Amino-5-{2-[(3-fluorophenyl)amino]-6-methyl-4-pyrimidinyl}-1,3-thiazol-4-yl)phenyl]-2,6-difluorobenzamide]: the half-maximal inhibitory concentration (IC50) lay within 100 to 1000 nM. Under `CCNc1nc(-c2cccc(NC(=O)C3CC3)c2)c(-c2ccnc(Nc3ccc(OCCN4CCCC4)c(Cl)c3)n2)s1` [Example 63, N-{3-[5-{2-[(3-Chloro-4-{[2-(1-pyrrolidinyl)ethyl]oxy}phenyl)amino]-4-pyrimidinyl}-2-(ethylamino)-1,3-thiazol-4-yl]phenyl}cyclopropanecarboxamide] stands less than 100 nM. Under `Nc1nc(-c2cccc(C(=O)Nc3c(F)cccc3F)c2)c(-c2ccnc(Nc3cccc(CN4CCCC4)c3)n2)s1` [Example 77, 3-[2-Amino-5-(2-{[3-(1-pyrrolidinylmethyl)phenyl]amino}-4-pyrimidinyl)-1,3-thiazol-4-yl]-N-(2,6-difluorophenyl)benzamide] stands less than 100 nM; under `Cc1nc(-c2cccc(NC(=O)c3c(F)cccc3F)c2)c(-c2ccnc(Nc3ccc(OCCN(C)C)c(Cl)c3)n2)s1` [Example 103, N-[3-(5-{2-[(3-Chloro-4-{[2-(dimethylamino)ethyl]oxy}phenyl)amino]-4-pyrimidinyl}-2-methyl-1,3-thiazol-4-yl)phenyl]-2,6-difluorobenzamide], less than 100 nM. Under `Cc1nc(-c2cccc(NC(=O)c3c(F)cccc3F)c2)c(-c2ccnc(Nc3ccc(OC4CCN(C(=O)OCc5ccccc5)CC4)c(F)c3)n2)s1` [Example 106] stands less than 100 nM; under `CCc1nc(-c2cccc(NC(=O)c3c(F)cccc3F)c2)c(-c2ccnc(Nc3cccc(CN4CCCC4)c3)n2)s1` [Example 115, N-{3-[2-Ethyl-5-(2-{[3-(1-pyrrolidinylmethyl)phenyl]amino}-4-pyrimidinyl)-1,3-thiazol-4-yl]phenyl}-2,6-difluorobenzamide], less than 100 nM; under `Cc1nc(-c2cccc(NC(=O)c3cc(F)ccc3F)c2)c(-c2ccnc(Nc3ccc(OCCN(C)C)c(Cl)c3)n2)o1` [Example 142], less than 100 nM.

(Values after patent US20110098296A1, “Thiazole And Oxazole Kinase Inhibitors” (priority 2007, published 2011).)
